pIC50: −log10 of the molar value. Values after ≈ are worked out from the molar mass of the structure shown.
How the values were obtained:
[1] = test system: Quinoline-Succeptable Streptococcus pneumoniae ATCC 6303; assay: MIC, agar dilution, quinoline-susceptible strain (code AA); assay type: cell-based; settings: ATCC6303, 35-37° C., 20-24 hours
Text: Antibacterial activity of the compounds […] Committee for Clinical Laboratory Standards (1997), “Methods for dilution antimicrobial susceptibility tests for bacteria that grow aerobically,” approved standard M7-A4 (Wayne, Pa., USA). All strains tested were from the Abbott Laboratories culture collection and were either clinical isolates or reference strains obtained from the American Type Culture Collection (Manassas, Va., USA).

[2] = test system: Quinoline-Resistant Streptococcus pneumoniae 7257; assay: MIC, agar dilution, quinoline-resistant strain (code BB); assay type: cell-based; settings: 35-37° C., 20-24 hours
[3] = molecular target: bacterial protein synthesis; assay: Translation assay, firefly luciferase reporter system with S30 Streptococcus pneumoniae extract; assay type: biochemical; settings: S30 extract from quinoline-succeptable Streptococcus pneumoniae ATCC 46919; luciferase mRNA; read-out: IC50, concentration causing 50% inhibition of bacterial protein synthesis
Procedure: Bacterial protein synthesis inhibitory activity of the compounds and the aformentioned commercially-available antibacterials was determined by translation assays performed using the firefly luciferase reporter system described by Murray et al., (2001), “Staphylococcus aureus Cell Extract Transcription-Translation Assay: Firefly Luciferase Reporter System for Evaluating Protein Translation Inhibitors,” Antimicrob. Agents Chemother. 45(6): 1900-1904, replacing the Staphylococcus aureus S30 extract described therein with S30 Streptococcus pneumoniae extract from quinoline-succeptable Streptococcus pneumoniae ATCC 46919, and replacing plasmid coding for the luciferase gene with mRNA (encoding produced by in vitro transcription from the plasmid pAS10rbs3) which encoded the luciferase gene with an upstream Streptococcus pneumoniae promoter and Shine-Dalgarno site.

| MIC [1] [µg/mL] | MIC [2] [µg/mL] | SMILES | pIC50 [3] |
| --- | --- | --- | --- |
| 1 (≈ 3.13 µM) | 32 (≈ 100 µM) | CCn1cc(C(=O)O)c(=O)c2cc(F)c(N3CCNCC3)cc21 [Norfloxacin] | – |
| 0.06 (≈ 0.144 µM) | 4 (≈ 9.61 µM) | N[C@@H]1[C@H]2CN(c3nc4c(cc3F)c(=O)c(C(=O)O)cn4-c3ccc(F)cc3F)C[C@@H]12 [Trovafloxacin] | – |

| SMILES | MIC [1] [µg/mL] | MIC [2] [µg/mL] | pIC50 [3] |
| --- | --- | --- | --- |
| CC(=O)NC[C@H]1CN(c2ccc(N3CCOCC3)c(F)c2)C(=O)O1 [Linezolid] | 2 (≈ 5.93 µM) | 0.5 (≈ 1.48 µM) | ~5.52 |
